Experimental data taken from BindingDB's records for PubMed 33356248 (Scientus Pharma, 2021).

Molecular target: Cannabinoid receptor 2 (Homo sapiens, UniProt P34972)
Sequence (P34972 whole entry): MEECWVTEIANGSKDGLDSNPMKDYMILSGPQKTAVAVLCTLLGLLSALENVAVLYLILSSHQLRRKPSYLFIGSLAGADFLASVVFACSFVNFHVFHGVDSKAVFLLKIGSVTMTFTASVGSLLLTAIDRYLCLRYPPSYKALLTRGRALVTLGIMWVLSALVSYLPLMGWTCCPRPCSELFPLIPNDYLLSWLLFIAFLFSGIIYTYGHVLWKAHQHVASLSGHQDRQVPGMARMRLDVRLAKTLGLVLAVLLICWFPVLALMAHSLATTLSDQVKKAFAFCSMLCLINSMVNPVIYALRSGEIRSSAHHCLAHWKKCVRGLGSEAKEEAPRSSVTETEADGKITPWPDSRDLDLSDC

CCCCCc1cc(O)c2c(c1)OC(C)(C)c1ccc(C)cc1-2 [6,6,9-Trimethyl-3-pentyl-6H-benzo[c]chromen-1-ol(Cannabinol)]
EC50: 60 nM
